Biological target: T1, aldose reductase (Rattus norvegicus, UniProt P07943)
T1 construct: the lenses were excised and homogenized in cold distilled water; from tissue; host or cells: lens of male SD rats, homogenate supernatant (crude enzyme)
Assay: Inhibitory activity against aldose reductase (crude enzyme from rat lenses, NADPH oxidation at 340 nm, D,L-glyceraldehyde substrate)
Type: biochemical
Details: aldose reductase from SD rat lenses, pH 6.2, 30° C.; for inhibition at 10 µM: pH 6.2, 10^-5 M; for inhibition at 10 µM / inhibition at 1 µM: read-out: Percentage of inhibition (%); for inhibition at 1 µM: pH 6.2, 10^-6 M
Method: The compounds of the present invention were evaluated for the inhibitory activity against aldose reductase according to the following assay procedure.
Enzyme activity was assayed according to the modification [Biochemical Pharmacology, 25, 2505 (1976)] of the method described in J. Biol. Chem., 240, 877-882 (1965).
SD strain male rats were sacrificed by decapitation, the lenses were excised and homogenized in cold distilled water. The homogenate was then centrifuged and the supernatant was used as the crude aldose reductase solution.
Separately, a 0.1 M sodium phosphate buffer (pH 6.2) containing 0.4 M ammonium sulfate was prepared at 30° C. In this buffer were dissolved the present compound, the crude aldose reductase solution and nicotinamide-adenine dinucleotide phosphate, reduced form (NADPH). The mixture was preincubated at 30° C. for 3 minutes and the reaction was initiated by addition of D,L-glyceraldehyde. In this case, the concentration of the present compound dissolved was 10^-5 M and 10^-6 M, respectively. The total amount of the assay mixture was 1.0 ml, containing 0.16 mM of NADPH, 10 mM of D,L-glyceraldehyde and 0.010-0.016 units of aldose reductase.
The inhibitory activity of the present compounds against aldose reductase was measured using each 1.0 ml of the reaction mixture containing the present compound in the above concentration. In this measurement, the rate of NADPH oxidation was followed by recording the decrease in absorbance at 340 nm. The inhibitory activity of the present compounds against aldose reductase as measured was expressed in percentage of inhibition (%) as a relative activity based on a control value.

Row | Molecule | inhibition at 10 µM [%] | Percentage of inhibition (%) (10^-5 M) | inhibition at 1 µM [%] | Percentage of inhibition (%) (10^-6 M)
1 | CCCCOC(=O)COc1ccc(Cl)cc1C=CC(C)=C1SC(=S)NC1=O (single isomer, unassigned) [51 Isomer B] | – | 58.7 | – | –
2 | CCCCOC(=O)COc1ccc(Cl)cc1C=CC(C)=C1SC(=S)NC1=O (single isomer, unassigned) [51 Isomer A] | 51.4 | – | – | –
3 | CCOC(=O)CCC(C=Cc1ccc(C#N)cc1)=C1SC(=S)NC1=O [Example 7, Ethyl 6-(4-cyanophenyl)-4-(4-oxo-2-thioxo-5-thiazolidinylidene)-5-hexenoate] | 50.9 | – | – | –
4 | CC(C=Cc1ccc(OCC(=O)O)c(OCC(=O)O)c1)=C1SC(=S)NC1=O (single isomer, unassigned) [83 Isomer A] | 82.4 | – | 43.4 | –
5 | CCOC(=O)CCC(C=Cc1ccc(OC)c(OC)c1)=C1SC(=S)NC1=O [Example 2, Ethyl 6-(3,4-dimethoxyphenyl)-4-(4-oxo-2-thioxo-5-thiazolidinylidene)-5-hexenoate] | 72 | – | 48.6 | –
6 | CCOC(=O)CCC(C=Cc1cccc(O)c1)=C1SC(=S)NC1=O (single isomer, unassigned) [8 Isomer B] | – | 43.1 | – | –
7 | CCOC(=O)CCC(C=Cc1ccc(C(=O)OC)cc1)=C1SC(=S)NC1=O [Example 12, Ethyl 6-(4-methoxycarbonylphenyl)-4-(4-oxo-2-thioxo-5-thiazolidinylidene)-5-hexenoate] | 42.8 | – | – | –
8 | CCCC(C=Cc1ccc(C(=O)O)cc1)=C1SC(=S)NC1=O (single isomer, unassigned) [3 Isomer B] | – | 80.5 | – | 34.5
9 | CCOC(=O)CCC(C=Cc1cccs1)=C1SC(=S)NC1=O (single isomer, unassigned) [13 Isomer A] | 56 | – | – | –
10 | COc1ccc(C=CC(CCCC(=O)O)=C2SC(=S)NC2=O)cc1OC (single isomer, unassigned) [38 Isomer B] | – | 94.5 | – | 77.9
11 | CCCCCCC(C=Cc1ccc(C(=O)O)cc1)=C1SC(=S)NC1=O (single isomer, unassigned) [26 Isomer A] | – | 92.0 | 68.9 | –
12 | CCCC(=Cc1ccccc1OCC(=O)OC)C=C1SC(=S)NC1=O (single isomer, unassigned) [61 Isomer B] | – | 77.2 | – | 39.0
13 | COC(=O)COc1ccc(C=CC(C)=C2SC(=S)NC2=O)cc1OCC(=O)OC (single isomer, unassigned) [60 Isomer B] | – | 70.3 | – | 30.4
14 | COC(=O)COc1ccc(C(C)C)cc1C=CC(C)=C1SC(=S)NC1=O (single isomer, unassigned) [62 Isomer A] | 48.3 | – | – | –
15 | O=C(O)CCC(C=Cc1ccc(C(F)(F)F)cc1)=C1SC(=S)NC1=O (single isomer, unassigned) [Example 23, 6-(4-Trifluoromethylphenyl)-4-(4-oxo-2-thioxo-5-thiazolidinylidene)-5-hexenoic acid] | 64.6 | – | – | –
16 | CCOC(=O)COc1ccc(C=CC(C)=C2SC(=S)N(C)C2=O)cc1OC (single isomer, unassigned) [55 Isomer A] | 38.1 | – | 23.8 | –
17 | O=C(O)CCC(C=Cc1ccccc1F)=C1SC(=S)NC1=O (single isomer, unassigned) [Example 22, 6-(2-Fluorophenyl)-4-(4-oxo-2-thioxo-5-thiazolidinylidene)-5-hexenoic acid] | 88.1 | – | 41.9 | –

The remaining lines, values ahead:

Row | inhibition at 10 µM [%] | Percentage of inhibition (%) (10^-5 M) | inhibition at 1 µM [%] | Percentage of inhibition (%) (10^-6 M) | Molecule
18 | 34.3 | – | – | – | COC(=O)COc1c(C=CC(C)=C2SC(=S)NC2=O)cccc1OC [Example 46, Methyl 2-methoxy-6-(3-(4-oxo-2-thioxo-5-thiazolinylidene)-1-butenyl]phenoxyacetate]
19 | 86.6 | – | 43 | – | CC(C=Cc1cc(Cl)cc(Cl)c1OCC(=O)O)=C1SC(=S)NC1=O [Example 80, 2,4-Dichloro-6-[3-(4-oxo-2-thioxo-5-thiazolinylidene)-1-butenyl]phenoxyacetic acid]
20 | 63.9 | – | 27.1 | – | COC(=O)COc1ccc(Br)cc1C=CC(C)=C1SC(=S)NC1=O [Example 56, Methyl 4-bromo-2-[3-(4-oxo-2-thioxo-5-thiazolinylidene)-1-butenyl]phenoxyacetate]
21 | 74.3 | – | – | – | COc1cc(C=CC(C)=C2SC(=S)NC2=O)cc(OC)c1OCC(=O)O [Example 74, 2,6-Dimethoxy-4-[3-(4-oxo-2-thioxo-5-thiazolinylidene)-1-butenyl]phenoxyacetic acid]
22 | 55.2 | – | 34.3 | – | COC(=O)COc1ccc(OC)cc1C=CC(C)=C1SC(=S)NC1=O [Example 65, Methyl 4-methoxy-2-[3-(4-oxo-2-thioxo-5-thiazolinylidene)-1-butenyl]phenoxyacetate]
23 | – | 89.7 | – | 69.6 | CC(=Cc1ccccc1OCC(=O)O)C=C1SC(=S)NC1=O [Example 86, 2-[2-Methyl-3-(4-oxo-2-thioxo-5-thiazolinylidene)-1-propenyl]phenoxyacetic acid]
24 | 79.9 | – | 45.6 | – | COC(=O)COc1ccc(C(F)(F)F)cc1C=CC(C)=C1SC(=S)NC1=O [Example 66, Methyl 4-trifluoromethyl-2-[3-(4-oxo-2-thioxo-5-thiazolinylidene)-1-butenyl]phenoxyacetate]
25 | 48.9 | – | – | – | CCOc1cc(CCC(C)=C2SC(=S)NC2=O)ccc1OCC(=O)OC [Example 45, Methyl 2-ethoxy-4-[3-(4-oxo-2-thioxo-5-thiazolinylidene)butyl]phenoxyacetate]
26 | 48.9 | – | 26.1 | – | CCOC(=O)COc1ccc(CCC(C)=C2SC(=S)NC2=O)cc1OC [Example 43, Ethyl 2-methoxy-4-[3-(4-oxo-2-thioxo-5-thiazolinylidene)butyl]phenoxyacetate]
27 | – | 77.6 | – | 35.9 | 5-[α-Methyl-4-(1H-tetrazol-5-yl)cinnamylidene)-4-oxo-2-thioxothiazolidine [Example 17]
28 | 95.3 | – | 79.4 | – | CC(C=Cc1ccccc1OCC(=O)O)=C1SC(=S)NC1=O [Example 67, 2-[3-(4-Oxo-2-thioxo-5-thiazolinylidene)-1-butenyl]phenoxyacetic acid]
29 | 93.7 | – | 82.4 | – | CC(=Cc1ccccc1OCC(=O)O)C=C1SC(=S)NC1=O [Example 68, 2-[2-Methyl-3-(4-oxo-2-thioxo-5-thiazolinylidene)-1-propenyl]phenoxyacetic acid]
30 | 72.3 | – | – | – | O=C(O)CCC(C=Cc1ccco1)=C1SC(=S)NC1=O [Example 35, 6-(2-Furyl)-4-(4-oxo-2-thioxo-5-thiazolidinylidene)-5-hexenoic acid]
31 | 59.2 | – | – | – | COc1cccc(CCC(C)=C2SC(=S)NC2=O)c1OCC(=O)O [Example 73, 2-Methoxy-6-(3-(4-oxo-2-thioxo-5-thiazolinylidene)butyl]phenoxyacetic acid]
32 | 71.3 | – | 32 | – | CCOC(=O)COc1ccc(C=C(C)C=C2SC(=S)NC2=O)cc1OC [Example 53, Ethyl 2-methoxy-4-[2-methyl-3-(4-oxo-2-thioxo-5-thiazolinylidene)-1-propenyl]phenoxyacetate]
33 | 83.6 | – | 39.8 | – | Cc1ccsc1C=CC(CCC(=O)O)=C1SC(=S)NC1=O [Example 31, 6-(3-Methyl-2-thienyl)-4-(4-oxo-2-thioxo-5-thiazolidinylidene)-5-hexenoic acid]
34 | 92.5 | – | 84.7 | – | COc1cc(C=CC(C)=C2SC(=S)NC2=O)ccc1OCC(=O)O [Example 32, 4-[3-(4-Oxo-2-thioxo-5-thiazolidinylidene)-1-butenyl]-2-methoxyphenoxyacetic acid]
35 | 88.5 | – | 58.6 | – | COc1cc(C=C(C)C=C2SC(=S)NC2=O)ccc1OCC(=O)O [Example 76, 2-Methoxy-4-[2-methyl-3-(4-oxo-2-thioxo-5-thiazolinylidene)-1-propenyl]phenoxyacetic acid]
36 | 82 | – | 32.9 | – | O=C(O)CCC(C=Cc1cccc(O)c1)=C1SC(=S)NC1=O (single isomer, unassigned) [Example 25, 6-(3-Hydroxyphenyl)-4-(4-oxo-2-thioxo-5-thiazolidinylidene)-5-hexenoic acid]
37 | 38.8 | – | – | – | COC(=O)COc1ccccc1C=CC(C)=C1SC(=S)NC1=O [Example 40, Methyl 2-[3-(4-oxo-2-thioxo-5-thiazolinylidene)-1-butenyl]phenoxyacetate]
38 | 95.3 | – | 87.6 | – | CC(C=Cc1cc(Cl)ccc1OCC(=O)O)=C1SC(=S)NC1=O [Example 75, 4-Chloro-2-[3-(4-oxo-2-thioxo-5-thiazolinylidene)-1-butenyl]phenoxyacetic acid]

From patent US5116855A, “Rhodanine derivatives and pharmaceutical compositions” (Nisshin Flour Milling Co., Ltd., priority 1989, dated 1992)
